Measurements: the NIST ThermoML archive (doi:10.1016/j.fluid.2005.07.009)

Legend:
[1] = molar heat capacity at constant pressure; conditions: 101.33 kPa, Small sample (50 mg) DSC
[2] = Molar enthalpy of transition or fusion; conditions: Crystal; DSC
[3] = Crystal; DTA

CCCCCCCCCCN [1-decanamine]
[1]
Conditions	molar heat capacity at constant pressure [J/K/mol]
260.31 K, Crystal	259.31
260.64 K, Crystal	260.44
260.93 K, Crystal	261.21
261.39 K, Crystal	261.42
261.62 K, Crystal	262.06
261.99 K, Crystal	263.4
262.32 K, Crystal	263.89
262.67 K, Crystal	264.94
262.94 K, Crystal	265.77
263.34 K, Crystal	266.8
263.61 K, Crystal	266.97
263.92 K, Crystal	267.74
264.39 K, Crystal	269.3
264.62 K, Crystal	269.42
264.91 K, Crystal	270.38
265.33 K, Crystal	271.97
265.61 K, Crystal	272.3
265.95 K, Crystal	273.03
266.38 K, Crystal	274.58
266.67 K, Crystal	275.4
266.96 K, Crystal	275.97
267.36 K, Crystal	277.46
267.62 K, Crystal	278.39
267.94 K, Crystal	279.27
268.33 K, Crystal	280.36
268.66 K, Crystal	281.82
268.95 K, Crystal	282.79
269.32 K, Crystal	283.64
269.63 K, Crystal	284.29
270.21 K, Crystal	285.94
298.11 K, Liquid	372.55
299.64 K, Liquid	373.35
300.38 K, Liquid	373.78
301.27 K, Liquid	373.82
302.37 K, Liquid	374.25
303.41 K, Liquid	374.33
304.05 K, Liquid	374.34
305.25 K, Liquid	374.39
306.31 K, Liquid	374.86
307.28 K, Liquid	375.02
308.4 K, Liquid	375.08
309.24 K, Liquid	375.35
310.32 K, Liquid	375.6
311.09 K, Liquid	375.9
312.37 K, Liquid	376.23
313.36 K, Liquid	376.31
314.28 K, Liquid	376.34
315.23 K, Liquid	376.91
316.39 K, Liquid	377.46
317.53 K, Liquid	377.49
318.23 K, Liquid	377.55
319.33 K, Liquid	377.88
320.09 K, Liquid	377.93
321.19 K, Liquid	377.99
322.08 K, Liquid	378.21
323.45 K, Liquid	378.65
324.17 K, Liquid	379.09
325 K, Liquid	379.38
326.2 K, Liquid	379.69
327.09 K, Liquid	379.8
328.21 K, Liquid	379.88
329.22 K, Liquid	380.68
330.18 K, Liquid	380.93
331.23 K, Liquid	381.19
332.31 K, Liquid	381.58
333.26 K, Liquid	382.32

Conditions	Molar enthalpy of transition or fusion [kcal/mol]
[2]	10.2

CCCCCCN [1-hexanamine]
[1]
Conditions	molar heat capacity at constant pressure [J/K/mol]
205.12 K, Crystal	135.48
206.53 K, Crystal	137.42
207.27 K, Crystal	138.49
208.18 K, Crystal	140.02
209.16 K, Crystal	140.47
210.21 K, Crystal	141.21
211.81 K, Crystal	141.65
212.3 K, Crystal	141.8
213.41 K, Crystal	141.86
214.27 K, Crystal	141.99
215.45 K, Crystal	143.94
216.17 K, Crystal	144.89
217.45 K, Crystal	145.13
218.13 K, Crystal	145.21
219.48 K, Crystal	146.21
220.34 K, Crystal	147.15
221.19 K, Crystal	148.86
222.04 K, Crystal	149.71
223.38 K, Crystal	151.47
224.66 K, Crystal	152.29
225.39 K, Crystal	153.27
226.42 K, Crystal	155.08
228.17 K, Crystal	156.72
230.11 K, Crystal	160.13
267.26 K, Liquid	248.4
268.63 K, Liquid	248.52
269.54 K, Liquid	248.61
270.16 K, Liquid	248.66
271.24 K, Liquid	248.67
272.69 K, Liquid	248.95
273.56 K, Liquid	249.01
274.18 K, Liquid	249.09
275.88 K, Liquid	249.12
276.66 K, Liquid	249.26
277.16 K, Liquid	249.31
278.69 K, Liquid	249.34
279.94 K, Liquid	249.36
280.47 K, Liquid	249.45
281.8 K, Liquid	249.47
282.34 K, Liquid	249.48
283.41 K, Liquid	249.51
284.45 K, Liquid	249.55
285.4 K, Liquid	249.79
286.56 K, Liquid	249.85
287.39 K, Liquid	249.86
288.43 K, Liquid	250.09
289.09 K, Liquid	250.12
290.21 K, Liquid	250.23
292.36 K, Liquid	250.46
293.15 K, Liquid	250.5
295.59 K, Liquid	250.98

Conditions	Molar enthalpy of transition or fusion [kcal/mol]
[2]	5.98

CCCCCCCCN [1-octanamine]
[1]
Conditions	molar heat capacity at constant pressure [J/K/mol]
214.08 K, Crystal	167.97
215.55 K, Crystal	170.58
217.65 K, Crystal	171.84
218.54 K, Crystal	174.15
220.18 K, Crystal	175.59
221.56 K, Crystal	175.94
223.07 K, Crystal	176.5
224.56 K, Crystal	177.92
226.18 K, Crystal	179.15
227.54 K, Crystal	180.21
229.16 K, Crystal	180.94
230.51 K, Crystal	183.42
232.12 K, Crystal	185.1
233.53 K, Crystal	186.36
235.26 K, Crystal	187
236.54 K, Crystal	188.74
238.13 K, Crystal	189.62
239.53 K, Crystal	191.53
241.11 K, Crystal	193.65
242.56 K, Crystal	195.03
244.04 K, Crystal	196.53
245.1 K, Crystal	197.38
246.25 K, Crystal	197.77
247.23 K, Crystal	198.38
248.63 K, Crystal	203.31
249.05 K, Crystal	203.59
249.65 K, Crystal	203.61
251.8 K, Crystal	204.04
252.23 K, Crystal	204.62
253.02 K, Crystal	206.62
295.09 K, Liquid	304.31
295.53 K, Liquid	304.33
296.13 K, Liquid	304.35
296.41 K, Liquid	304.94
297.1 K, Liquid	304.99
297.32 K, Liquid	305.36
298.16 K, Liquid	305.42
298.58 K, Liquid	305.98
299.02 K, Liquid	306.08
299.35 K, Liquid	306.45
300.13 K, Liquid	306.53
300.53 K, Liquid	306.69
301.18 K, Liquid	307.19
301.52 K, Liquid	307.31
302.16 K, Liquid	307.33
302.56 K, Liquid	307.36
303.28 K, Liquid	307.81
303.51 K, Liquid	308.08
304.44 K, Liquid	308.1
304.71 K, Liquid	308.11
304.99 K, Liquid	308.47
305.64 K, Liquid	308.51
306.11 K, Liquid	308.52
306.59 K, Liquid	308.6
307.38 K, Liquid	308.63
307.5 K, Liquid	308.83
308.05 K, Liquid	308.92
308.54 K, Liquid	309.05
309.16 K, Liquid	309.12
309.24 K, Liquid	309.24
310.24 K, Liquid	309.3
310.53 K, Liquid	309.35
311.07 K, Liquid	309.39
311.51 K, Liquid	310.16
312.64 K, Liquid	310.21
313.22 K, Liquid	310.76

Conditions	Molar enthalpy of transition or fusion [kcal/mol]
[2]	8.3

CCCCCCCCCO [nonan-1-ol]
Conditions	Molar enthalpy of transition or fusion [kcal/mol]	Triple point temperature [K]
[2]	5.87	–
[3]	–	268.1

CCCCCCCCO [octan-1-ol]
Conditions	Triple point temperature [K]
[3]	258.03
